Results taken from ChEMBL document CHEMBL1201862, “PubChem BioAssay data set” (2004).
Where a name gives a salt, the structure may show the parent alone. One block for each compound: values may come before it. Active and inactive are the calls of the source.

Columns and labels:
[1] = biological target: T1, High affinity choline transporter 1 (Homo sapiens, UniProt Q9GZV3); experiment: CHT activators, dose response, cell-based, 10-point CRC, membrane potential dye (AID 602376); type: functional
T1 sequence (Q9GZV3 whole entry): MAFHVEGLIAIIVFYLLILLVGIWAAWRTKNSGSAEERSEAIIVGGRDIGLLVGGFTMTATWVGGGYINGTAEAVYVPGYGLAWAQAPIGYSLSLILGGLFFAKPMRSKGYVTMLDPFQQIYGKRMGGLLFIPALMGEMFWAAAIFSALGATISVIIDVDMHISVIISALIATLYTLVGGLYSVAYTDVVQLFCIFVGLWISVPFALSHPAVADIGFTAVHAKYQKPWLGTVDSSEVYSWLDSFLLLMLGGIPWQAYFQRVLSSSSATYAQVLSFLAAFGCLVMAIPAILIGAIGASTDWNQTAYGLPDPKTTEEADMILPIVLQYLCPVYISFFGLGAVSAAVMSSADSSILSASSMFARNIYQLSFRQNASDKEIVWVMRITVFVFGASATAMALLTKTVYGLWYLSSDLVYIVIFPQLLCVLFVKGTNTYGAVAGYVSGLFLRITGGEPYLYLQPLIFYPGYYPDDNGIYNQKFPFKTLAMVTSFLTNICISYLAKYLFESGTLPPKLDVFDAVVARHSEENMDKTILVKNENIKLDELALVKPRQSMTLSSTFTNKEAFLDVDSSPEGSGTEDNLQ

[2] = biological target: DNA dC->dU-editing enzyme APOBEC-3G (Homo sapiens, UniProt Q9HC16); type: functional;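 also: Dose-response counterscreen measuring inhibition of APOBEC3G DNA deaminase activity, run while confirming APOBEC3A inhibitors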
[3] = biological target: DNA dC->dU-editing enzyme APOBEC-3A (Homo sapiens, UniProt P31941); experiment: Dose Response confirmation of small molecule APOBEC3A DNA Deaminase Inhibitors via a fluorescence-based single-stranded DNA deaminase assay. [Related pubchem assays (depositor defined):AID493011, AID493024]; type: functional
[4] = inhibitors of intracellular T. cruzi replication, confirmation, NIH3T3 host cells, beta-gal luminescence (AID 2044); type: functional, cell-based;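 also: intracellular parasites grown in NIH/3T3 mouse fibroblasts as host cells; luminescent beta-galactosidase reporter signal from transgenic T. cruzi replicating inside host cells; inhibitors lower the luminescence signal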
[5] = cytotoxicity toward NIH3T3 fibroblasts, dose response, counter-screen, cell-based, ATP luminescence, mouse fibroblasts (AID 2010); type: functional;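 also: cells exposed to compound for about 90 hours before reading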
[6] = biological target: T1, High affinity choline transporter 1; experiment: CHT inhibitors, dose response, cell-based, 10-point CRC, membrane potential dye (AID 588401); type: functional;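 also: membrane potential dye fluorescence of choline-evoked depolarization via CHT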
[7] = biological target: T1, High affinity choline transporter 1; experiment: CHT inhibitors, dose response, cell-based, 5-point CRC, membrane potential dye (AID 504840); type: functional
[8] = biological target: T2, Orexin/Hypocretin receptor type 1 (Homo sapiens, UniProt O43613); experiment: (§1) Fluorescence-based cell-based high throughput dose response assay for antagonists of the orexin 1 receptor (OX1R; HCRTR1). [Related pubchem assays (depositor defined):AID434989, AID435008, AID463079, AID485270, AID492963, AID492964, AID492965, AID493232, AID504717, AID504718]; type: functional
T2 sequence (O43613 whole entry): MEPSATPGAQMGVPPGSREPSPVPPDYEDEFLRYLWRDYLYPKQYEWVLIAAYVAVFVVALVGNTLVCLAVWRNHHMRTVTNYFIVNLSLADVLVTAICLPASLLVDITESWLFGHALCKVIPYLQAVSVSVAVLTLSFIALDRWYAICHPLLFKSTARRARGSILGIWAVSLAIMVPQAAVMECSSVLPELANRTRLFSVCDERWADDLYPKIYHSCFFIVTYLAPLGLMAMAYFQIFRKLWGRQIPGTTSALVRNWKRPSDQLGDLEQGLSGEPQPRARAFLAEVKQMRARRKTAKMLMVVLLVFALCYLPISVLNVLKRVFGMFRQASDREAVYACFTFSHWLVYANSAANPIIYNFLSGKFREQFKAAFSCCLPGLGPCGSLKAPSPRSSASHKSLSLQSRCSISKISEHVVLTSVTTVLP

CHO-K1 = experiment: (§2) Counterscreen for antagonists of the orexin 1 receptor (OX1R; HCRTR1): Homogeneous time resolved fluorescence (HTRF)-based cell-based dose response assay to identify antagonists of the parental CHO-K1 cell line. [Related pubchem assays (depositor defined):AID434989, AID435008, AID463079, AID485270, AID492963, AID492964, AID492965, AID493232, AID504699, AID504701]; type: functional; conditions: Cricetulus griseus
Orexin receptor type 2 [9] = biological target: T3, Orexin receptor type 2 (Homo sapiens, UniProt O43614); experiment: Counterscreen assay for antagonists of the orexin 1 receptor (OX1R; HCRTR1): Fluorescence-based cell-based dose response assay for antagonists of the orexin 2 receptor (OX2R; HCRTR2), run by assay provider.; type: functional
T3 sequence (O43614 whole entry): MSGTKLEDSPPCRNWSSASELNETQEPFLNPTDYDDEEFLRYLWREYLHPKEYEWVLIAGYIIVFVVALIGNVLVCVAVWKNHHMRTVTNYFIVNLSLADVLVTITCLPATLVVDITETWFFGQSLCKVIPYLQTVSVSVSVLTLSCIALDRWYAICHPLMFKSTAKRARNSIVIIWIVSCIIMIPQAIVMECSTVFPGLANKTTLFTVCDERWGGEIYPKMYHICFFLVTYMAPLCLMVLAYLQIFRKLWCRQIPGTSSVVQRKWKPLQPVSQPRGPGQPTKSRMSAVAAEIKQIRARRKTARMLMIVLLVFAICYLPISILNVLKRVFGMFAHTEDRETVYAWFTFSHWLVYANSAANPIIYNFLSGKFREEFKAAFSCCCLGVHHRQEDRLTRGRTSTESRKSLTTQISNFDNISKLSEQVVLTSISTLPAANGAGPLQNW

Orexin receptor type 2 [10] = biological target: T3, Orexin receptor type 2; experiment: Counterscreen assay for antagonists of the orexin 1 receptor (OX1R; HCRTR1): Homogeneous Time Resolved Fluorescence (HTRF)-based cell-based dose response assay for antagonists of the orexin 2 receptor (OX2R; HCRTR2), run by assay provider.; type: functional
[11] = as §2, with “Fluorescence-based” for “Homogeneous time resolved fluorescence (HTRF)-based”, “cell-based high throughput” for “cell-based”, “CHO” for “CHO-K1”; type: functional
[12] = biological target: T2, Orexin/Hypocretin receptor type 1; experiment: as §1, with “Homogeneous Time Resolved Fluorescence (HTRF)-based” for “Fluorescence-based”; type: functional

Sequence of DNA dC->dU-editing enzyme APOBEC-3A (P31941 whole entry): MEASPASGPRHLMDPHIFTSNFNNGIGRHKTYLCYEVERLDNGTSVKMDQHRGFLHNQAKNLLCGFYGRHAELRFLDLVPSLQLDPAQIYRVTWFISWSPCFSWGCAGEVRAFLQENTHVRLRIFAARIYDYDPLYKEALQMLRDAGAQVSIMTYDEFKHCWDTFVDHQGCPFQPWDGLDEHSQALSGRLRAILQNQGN
Sequence of DNA dC->dU-editing enzyme APOBEC-3G (Q9HC16 whole entry): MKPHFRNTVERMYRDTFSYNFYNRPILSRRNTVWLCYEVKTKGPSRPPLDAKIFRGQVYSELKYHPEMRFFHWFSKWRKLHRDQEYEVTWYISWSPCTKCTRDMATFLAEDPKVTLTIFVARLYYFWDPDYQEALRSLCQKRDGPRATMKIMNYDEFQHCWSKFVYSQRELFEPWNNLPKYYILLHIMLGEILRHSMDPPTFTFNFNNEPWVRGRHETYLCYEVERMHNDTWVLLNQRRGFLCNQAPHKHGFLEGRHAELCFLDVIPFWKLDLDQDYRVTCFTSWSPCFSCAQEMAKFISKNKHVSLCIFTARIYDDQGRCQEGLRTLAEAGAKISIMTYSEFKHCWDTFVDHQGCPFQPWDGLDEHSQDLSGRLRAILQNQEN

SMILES: CCN1C(NCCc2cccnc2)=N[C@@H](c2ccccc2)[C@H](C(=O)OC)[C@H]1C
EC50 [1]: 14.6 µM (active)
IC50 [2]: 6.37 µM (active)
IC50 [3]: 4.22 µM (active)

SMILES: CCC(C)(C)n1nnnc1C(c1cccnc1)N1CCN(c2cccc(C(F)(F)F)c2)CC1 (configuration not stated)
EC50 [4]: 0.101 µM (active)
EC50 [1]: 16 µM (active)
EC50 [5]: > 60 µM (not active)

IC50 [6]: 4.47 µM (active)
IC50 [7]: 9.03 µM (active)
SMILES: COc1ccc(C(=O)c2c3ccc(C(F)(F)F)cc3[n+]([O-])n2CCCN)cc1

SMILES: CC(C)(C)NCC(O)c1cc(Cl)c(N)c(Cl)c1 (configuration not stated) [CLENBUTEROL HYDROCHLORIDE]
IC50 [6]: 0.000897 µM (active)
IC50 [7]: 0.0288 µM (active)

SMILES: c1ccc(N2CCN(c3ncnc4c3oc3ccccc34)CC2)cc1
IC50 [8]: 12.4 µM (inactive)
IC50 (CHO-K1): > 66.3 µM (inactive)
IC50 (Orexin receptor type 2 [9]): > 88.8 µM (inactive)
IC50 (Orexin receptor type 2 [10]): > 50 µM (inactive)
IC50 [11]: 17.7 µM (inactive)
IC50 [12]: 4.71 µM (active)

SMILES: C=CCSC1=C(C#N)C(c2ccccc2Cl)C(C(=O)c2cccs2)C(O)(C(F)(F)F)N1 (configuration not stated)
IC50 [8]: 1.62 µM (active)
IC50 (CHO-K1): > 66.2 µM (inactive)
IC50 (Orexin receptor type 2 [9]): 10.3 µM (inactive)
IC50 (Orexin receptor type 2 [10]): 15.2 µM (inactive)
IC50 [11]: 25 µM (inactive)
IC50 [12]: 0.405 µM (active)
